Data as given in patent US8455440B2, “Combination anticoagulant therapy with a compound that acts as a factor Xa inhibitor” (Millennium Pharmaceuticals, Inc., priority 2007, dated 2013).

Legend:
thrombin generation = experiment: Thrombin generation inhibition assay; type: biochemical, human
Protocol: After 10 min, the reaction was stopped by addition of EGTA. A chromogenic peptide substrate (Spectrozyme TH, American Diagnostica) specific for thrombin was added to measure the activity of thrombin generated during the tissue factor treatment period. After allowing the substrate cleavage reaction to proceed for 2 min, the samples were quenched with glacial acetic acid. The plasma samples were analyzed in triplicate in a 96-well plate format. […] The control samples were used to establish plate acceptance criteria. Absorbance of each sample well was measured at 405 nm.
Thrombin generation (% Inhibition) was calculated from absorbance at 405 nm (A405) by the following equation: %Inhibition=(1−A405/Baseline)×100.
Since thrombin generation inhibition values were reported as a percentage there is no lower limit of quantitation in this assay.

[1] = system: ADP induced platelet aggregation; experiment: Ex vivo platelet aggregation induced by 10 μM ADP; type: in vivo; settings: Rattus norvegicus, read-out: % inhibition of platelet aggregation
Protocol: In this experiment, the ability of Compound A to maintain vessel patency under arterial flow conditions in ferric chloride induced thrombosis in rat carotid artery is compared to that achieved by clopidogrel. Compound A was administered by intravenous infusions and clopidogrel was dosed orally for three days. Ex vivo platelet aggregation induced by 10 μM ADP and clotting times (prothrombin time, PT and activated partial thromboplastin times, aPTT) were measured over the experimental time course (90 min) in all animals.
This level of platelet inhibition is approximately equivalent to that attained by clopidogrel's effect on human platelets at the therapeutic dose in clinical use (75 mg per day). […] Time to occlusion was measured in animals that had vessel occlusion.

cytokine release = experiment: Ex vivo assay of human cytokine release in collagen activated whole blood; type: cell-based; settings: Compound A single treatment (50 to 500 nM), blood of healthy untreated donors, collagen 4 μg/mL
Protocol: An ex vivo assay system of human cytokine release was used to test whether inhibition of factor Xa should augment the effect of reduction of inflammation elicited by standard anti-inflammatory drugs, such as aspirin.
Following addition of Compound A (50 to 500 nM) to the blood samples, control and treated samples were activated by addition of collagen (Chronolog, 4 μg/mL) and gently rotated at 37° C. for 45 min. At the end of the activation period, blood samples were centrifuged at 13,000 rpm (15,000 g) for 5 min in an Eppendorf 5415G centrifuge. Plasma was removed, treated with protease inhibitor cocktail (Roche) and stored frozen at −80° C. Cytokines released from the blood cells were quantitated in a Multiplexed Biomarker Immunoassay for Luminex Instrumentation (Millipore USA). […] For example, in the plasma samples from six donors, the mean amount of interleukin 4 was 28.4 pg/mL in the untreated control and 26.8 to 29.4 pg/mL in the Compound A treated samples. […] Thus in this ex vivo system Compound A was capable of providing additional beneficial effect over a widely used anti-inflammatory agent.

Interleukin 8 = experiment: Ex vivo cytokine release in human whole blood: interleukin 8; type: cell-based
[2] = system: systolic and diastolic blood pressure; experiment: Telemetry blood pressure in conscious beagle dogs, three way crossover; type: in vivo
Protocol: The study design was a three way crossover with one week between doses to ensure complete elimination of residual agents from the dogs' circulatory system. […] Data acquisition and analysis was performed using LDS Life Science Suite Ponemah P3 plus V 4.20 software with results reported as 10 minute averages for each animal.
AUC was derived from the systolic and diastolic baseline. […] Negative values represent a decrease in blood pressure relative to the baseline value.

[3] = system: Thrombosis on mouse mesenteric arteries; experiment: FeCl3 thrombosis on mouse mesenteric arteries; type: in vivo, mice; settings: for Mean time to occlusion: P2Y12^+/− mice, 10 mg/kg
Description: Commonly used P2Y12 antagonists such as clopidogrel are prescribed at doses that block 40-50% of the P2Y12 receptors on platelets of treated patients. It has been shown that P2Y12^+/− mice which express ˜50% of the receptor on their platelets compared to wild type control (P2Y12^+/+), display an intermediate thrombosis phenotype between wild type and mice completely deficient in P2Y12 (P2Y12^−/−). (Andre, P., et al., J Clin Invest, 2003. 112(3):398-406). P2Y12 regulates platelet adhesion/activation, thrombus growth, and thrombus stability in injured arteries. The effect of Compound A was studied in a thrombosis model with P2Y12^+/− mice to effectively mimic the combination of dual dosing of factor Xa inhibitor and P2Y12 antagonist in humans.
Thrombosis on mouse mesenteric arteries (shear rate 1000-1300 s^−1) was performed and recorded as previously described (Andre, P., et al., J Clin Invest, 2003. 112(3):398-406). Platelets were labeled in situ using rhodamine 6G (0.2 mg/mL) and administered through the tail vein 10 min before visualization of the arteries. Vessel-wall injury was triggered by a 1×1-mm filter paper saturated with a 10% FeCl3 solution. After 5 minutes, the filter paper was removed and mesenteric arteries rinsed with warmed saline (37° C.). Platelet vessel-wall interactions were recorded for 40 additional minutes or until full occlusion occurred and persisted for more than 40 seconds. C57Bl6J mice (wild type control or P2Y12^+/−) were orally gavaged with vehicle control, compound A (2, 4, 10 mg/kg) two hours prior to vascular injury. Thrombosis was analyzed in real time using Simple PCI software. The fluorescence intensity was recorded at a rate of 2 Hz for 40 minutes and plotted over time. Time to occlusion (cessation of blood flow) was analyzed. Plasma concentrations of Compound A were determined on blood collected 2 min post-occlusion or 42 min after start of vascular injury.

[4] = system: venous thromboembolism (VTE); experiment: Prospective randomized trial for prevention of venous thromboembolic events after total knee replacement; settings: for VTE %: 10-14 days
Description: Safety endpoints included the incidence of major and clinically significant nonmajor bleeds through the day after venography. All efficacy and bleeding endpoints were adjudicated by a blinded, independent central adjudication committee.

[5] = Dog # 1, oral, Compound A 3 mg/kg, verapamil 10 mg/kg
[6] = Dog # 2, oral, Compound A 3 mg/kg, verapamil 10 mg/kg
[7] = Dog # 3, oral, Compound A 3 mg/kg, verapamil 10 mg/kg
[8] = three dogs, oral, Compound A 3 mg/kg, verapamil 10 mg/kg
[9] = wild type mice, 10 mg/kg oral gavage

For `COc1ccc(NC(=O)c2ccc(C(=N)N(C)C)cc2)c(C(=O)Nc2ccc(Cl)cn2)c1` [Compound A, [2-({4-[(dimethylamino)iminomethyl]phenyl}carbonylamino)-5-methoxyphenyl]-N-(5-chloro(2-pyridyl))carboxamide], the “correlation between Compound A plasma concentration and inhibition of thrombin generation” value (thrombin generation; plasma of healthy volunteers, single and multiple ascending doses (FIG. 1, FIG. 2)) was “good correlation”, the “effect on inhibition of thrombin generation” value (thrombin generation; total knee replacement patients, 15 mg or 40 mg oral twice a day) was “dose- and concentration-dependent effect” and the inhibition at 0.03 µM [1] was -2%. The inhibition at 0.1 µM [1] was 4%, the inhibition at 0.3 µM [1] was 0.8% and the “inhibition of cytokine release” value (cytokine release) was “did not produce statistically significant inhibition of cytokine release”. For the same molecule, the “reduction in the levels of released interleukin 8” value (Interleukin 8; Compound A added to blood samples from donors under aspirin therapy) was 44%, the “further reduction of interleukin 8” value (Interleukin 8; addition of Compound A to whole blood of aspirin treated donors prior to collagen activation) was 18% and the “diastolic blood pressure (DBP) compared to pre-dose values” ([2]; Compound A 3 mg/kg as a single agent, oral) was “no statistical differences”. The “Lowest Diastolic Blood Pressure Post-Dosing” value [2, 5] was 92.57 mmHg, the “Lowest Systolic Blood Pressure Post-Dosing” value [2, 5] was 150.32 mmHg and the “Lowest Diastolic Blood Pressure Post-Dosing” value [2, 6] was 83.73 mmHg. For the same molecule, the “Lowest Systolic Blood Pressure Post-Dosing” value [2, 6] was 121.08 mmHg, the “Lowest Diastolic Blood Pressure Post-Dosing” value [2, 7] was 80.52 mmHg and the “Lowest Systolic Blood Pressure Post-Dosing” value [2, 7] was 101.93 mmHg. For the same molecule, the “Mean Area Under the Curve for Systolic Pressure (AUCP), Mean ± S.D.” value ([2]; following verapamil or placebo administration ([…]), relative to baseline) was 782.7 ± 1297.8 mmHg * min, the “measures of blood pressure upon coadministration with verapamil” value ([2]; telemeterized dogs) was “did not change the measures of blood pressure” and the “Lowest Diastolic Blood Pressure Post-Dosing, Mean ± S.D.” value [2, 8] was 85.60 ± 6.24 mmHg. For the same molecule, the “Lowest Systolic Blood Pressure Post-Dosing, Mean ± S.D.” value [2, 8] was 124.44 ± 24.37 mmHg, the “plasma concentration sufficient to prevent vascular occlusion” value ([3]; P2Y12^+/− animals) was “more than 76 ng/mL” and the time to occlusion ([3]; P2Y12^+/− mice with Compound A (756.7 seconds without)) was “over 2100 seconds”. The “Mean time to occlusion” value ([3]; Experiment 1) was 2143 s, the “Mean time to occlusion” value ([3]; Experiment 2) was 2399 s and the “Mean time to occlusion” value ([3]; Experiment 3) was 2305 s. The “circulating plasma concentration that prevented vascular occlusion” value ([3]; wild type animals) was “more than 1000 ng/mL”, the “time for appearance of first thrombus” value [3, 9] was “significantly delayed” and the time to occlusion [3, 9] was “significantly delayed”. The antithrombotic effect ([3]; wild type mice, 2 and 4 mg/kg oral gavage two hours prior to injury) was “non-effective”, the “Clinical significant nonmajor bleeds %” value ([4]; Compound A 15 mg bid) was 0% and the “Major Bleeds %” value ([4]; Compound A 15 mg bid) was 0%. For the same molecule, the VTE % ([4]; Compound A 15 mg bid oral, n = 69) was 20%, the “Clinical significant nonmajor bleeds %” value ([4]; Compound A 40 mg bid) was 2.4% and the “Major Bleeds %” value ([4]; Compound A 40 mg bid) was 0%. It also gave a VTE % ([4]; Compound A 40 mg bid oral, n = 65) of 15%.
